Source: ChEMBL document CHEMBL5500416, “Development of a Potent and Selective G2A (GPR132) Agonist” (J Med Chem, 2024)

What was measured:
[1] = target: T1, Probable G-protein coupled receptor 132 (Homo sapiens, UniProt Q9UNW8)
T1 sequence (Q9UNW8 whole entry): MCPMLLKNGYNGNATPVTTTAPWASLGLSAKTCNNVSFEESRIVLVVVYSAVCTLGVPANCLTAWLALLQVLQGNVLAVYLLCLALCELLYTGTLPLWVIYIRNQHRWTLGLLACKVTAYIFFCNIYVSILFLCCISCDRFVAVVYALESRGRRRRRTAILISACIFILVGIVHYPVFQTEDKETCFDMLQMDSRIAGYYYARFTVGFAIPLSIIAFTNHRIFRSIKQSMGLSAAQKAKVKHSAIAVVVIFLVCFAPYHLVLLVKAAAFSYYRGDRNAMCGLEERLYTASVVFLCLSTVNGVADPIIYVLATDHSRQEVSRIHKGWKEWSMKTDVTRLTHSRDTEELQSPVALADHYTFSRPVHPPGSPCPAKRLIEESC
Description: Agonist activity at human G2A expressed in CHO-K1 cells co-expressing human GNA11 assessed as accumulation of IP-1 incubated for 90 mins by HTRF based FRET assay

[2] = Cytotoxicity against human HepG2 cells assessed as cell viability upto 100 uM incubated for 72 hrs by CellTiter-Glo assay relative to control; type: toxicity, cell-based; details: read-out: Activity
[3] = Drug concentration in male C57BL/6N mouse plasma at 10 mg/kg, sc measured after 12 hrs by LC-MS analysis; type: ADME, organism-based
[4] = Drug concentration in male C57BL/6N mouse plasma at 1 mg/kg, iv measured after 8 hrs by LC-MS analysis; type: ADME, organism-based
[5] = Tmax in male C57BL/6N mouse at 10 mg/kg, sc measured after 12 hrs by LC-MS analysis; type: ADME, organism-based; details: in vivo
[6] = Cmax in male C57BL/6N mouse at 1 mg/kg, iv measured after 8 hrs by LC-MS analysis; type: ADME, organism-based; details: in vivo
[7] = AUC (0 to 12 hrs) in male C57BL/6N mouse at 10 mg/kg, sc measured after 12 hrs by LC-MS analysis; type: ADME, organism-based; details: in vivo
[8] = Metabolic stability in Sprague-Dawley rat liver microsomes assessed as intrinsic clearance measured after 60 mins in presence of NADPH regenerating system by HPLC analysis; type: ADME, Microsome; details: 1 h
[9] = Cmax in male C57BL/6N mouse at 10 mg/kg, sc measured after 12 hrs by LC-MS analysis; type: ADME, organism-based; details: in vivo
[10] = Aqueous solubility of compound in PBS at pH 7.4 measured after 24 hrs by microplate analysis; type: physicochemical; details: buffer, pH 7.4, 24 h
[11] = Metabolic stability in Sprague-Dawley rat liver microsomes assessed as parent compound remaining measured after 60 mins in presence of NADPH regenerating system by HPLC analysis; type: ADME, Microsome; details: read-out: Stability
[12] = target: T1, Probable G-protein coupled receptor 132; remark: listed apart in the source
Description: Binding affinity to SmBit-tagged human G2A expressed in CHOK-1 cells co-expressing LgBit-betaarrestin2 incubated for 15 mins by NanoLuc betaarrestin2 recruitment assay

[13] = Tmax in male C57BL/6N mouse at 1 mg/kg, iv measured after 8 hrs by LC-MS analysis; type: ADME, organism-based; details: in vivo
[14] = Clearance in male C57BL/6N mouse at 10 mg/kg, sc measured after 12 hrs by LC-MS analysis; type: ADME, organism-based; details: in vivo
[15] = AUC (0 to 8 hrs) in male C57BL/6N mouse at 1 mg/kg, iv measured after 8 hrs by LC-MS analysis; type: ADME, organism-based; details: in vivo

| Structure (SMILES) | EC50 [1] | other results |
| --- | --- | --- |
| O=C(NC(Cc1ccccc1Cl)C(=O)O)c1cccc(OCc2cccnc2)c1 (stereo unspecified) | 13.5 µM |  |
| O=C(NC(Cc1ccccc1)C(=O)O)c1cccc(OCc2ccccc2)c1 (stereo unspecified) | 7.5 µM |  |
| O=C1C2=C(CCN(Cc3ccccc3)C2)N2CCN=C2N1Cc1ccc(C(F)(F)F)cc1 | 3.92 µM |  |
| O=C(NC(Cc1ccccc1)C(=O)O)c1ccc(OCc2cccnc2)cc1 (racemic) | 38.2 µM |  |
| O=C(NC(Cc1ccccc1)C(=O)O)c1cccc(OCc2ccccn2)c1 (racemic) | 11.9 µM |  |
| CCCCC/C=C\C=C\C(O)CCCCCCCC(=O)O (racemic) | 7.5 µM |  |
| O=C(N[C@H](Cc1ccc(C(F)(F)F)cc1)C(=O)O)c1cccc(OCc2cccnc2)c1 | 8.71 µM |  |
| CC(c1ccccc1)C(NC(=O)c1cccc(OCc2cccnc2)c1)C(=O)O (stereo unspecified) | 19.6 µM |  |
| O=C(NC(Cc1ccccc1)C(=O)O)c1cccc(OCc2ccncc2)c1 (racemic) | 2.87 µM |  |
| O=C(NC(Cc1ccncc1)C(=O)O)c1cccc(OCc2cccnc2)c1 (stereo unspecified) | 49.7 µM |  |
| O=C(N[C@H](Cc1ccc(Cl)cc1)C(=O)O)c1cccc(OCc2cccnc2)c1 | 7.53 µM |  |
| O=C(N[C@@H](Cc1ccccc1)C(=O)O)c1cccc(OCc2cccnc2)c1 | 31.1 µM |  |
| O=C(NC(Cc1ccccc1)C(=O)O)c1cccc(OCc2cccnc2)c1 (stereo unspecified) | 1.74 µM | viability at 72 h, up to 100 µM [2]: ≥ 90% |
| O=C(N[C@@H](CCc1ccccc1)C(=O)O)c1cccc(OCc2cccnc2)c1 | 68.5 µM |  |
| O=C(NC(Cc1ccc(OC(F)(F)F)cc1)C(=O)O)c1cccc(OCc2cccnc2)c1 (racemic) | 3.34 µM |  |
| CC(NC(=O)c1cccc(OCc2cccnc2)c1)(C(=O)O)c1ccccc1 (stereo unspecified) | 6.2 µM |  |
| O=C(N[C@H](Cc1ccccc1)C(=O)O)c1cccc(OCc2cccnc2)c1 | 0.82 µM | concentration at 12 h [3]: 2.9 ng/mL; concentration at 8 h [4]: 2.4 ng/mL; Tmax [5]: 30 min; Cmax [6]: 45.3 ng/mL; AUC(0-t) at 12 h [7]: 591 ng·h/mL; CLint [8]: 1.68 µL/min/mg; Cmax [9]: 755 ng/mL; solubility [10]: >= 3000 uM; remaining at 1 h [11]: 98%; EC50 [12]: 7.7 µM; Tmax [13]: 15 min; CL/F [14]: 141 mL/min/kg; AUC(0-t) at 8 h [15]: 47.3 ng·h/mL; viability at 72 h, up to 100 µM [2]: ≥ 90% |
| O=C(N[C@H](CCc1ccccc1)C(=O)O)c1cccc(OCc2cccnc2)c1 | 12 µM |  |
| O=C(NC(Cc1ccc(F)cc1)C(=O)O)c1cccc(OCc2cccnc2)c1 (stereo unspecified) | 1.96 µM |  |

Further lines, with some results ahead:

| EC50 [1] | Structure (SMILES) | other results |
| --- | --- | --- |
| 38.4 µM | O=C(N[C@@H](C(=O)O)c1ccccc1)c1cccc(OCc2cccnc2)c1 |  |
| 6.87 µM | CCCC(NC(=O)c1cccc(OCc2cccnc2)c1)C(=O)O (stereo unspecified) |  |
| > 100 µM | O=C(NC(C(=O)O)C1CC1)c1cccc(OCc2cccnc2)c1 (stereo unspecified) |  |
| 79.2 µM | O=C(NC(C(=O)O)c1cccnc1)c1cccc(OCc2cccnc2)c1 (stereo unspecified) |  |
| 40.6 µM | CCC[C@@H](NC(=O)c1cccc(OCc2cccnc2)c1)C(=O)O |  |
| 7.33 µM | CC(C)[C@H](NC(=O)c1cccc(OCc2cccnc2)c1)C(=O)O |  |
| 2.92 µM | CCC[C@H](NC(=O)c1cccc(OCc2cccnc2)c1)C(=O)O |  |
| 13.2 µM | C[C@H]1CC[C@@](NC(=O)c2cccc(OCc3cccnc3)c2)(C(=O)O)CC1 |  |
| 12.2 µM | O=C(N[C@@H](CC1CCCCC1)C(=O)O)c1cccc(OCc2cccnc2)c1 |  |
| > 100 µM | COC[C@H](NC(=O)c1cccc(OCc2cccnc2)c1)C(=O)O |  |
| 64.8 µM | CC(C)[C@@H](NC(=O)c1cccc(OCc2cccnc2)c1)C(=O)O |  |
| 27.5 µM | CCC(NC(=O)c1cccc(OCc2cccnc2)c1)C(=O)O (stereo unspecified) |  |
